Measurements as given in US20160220567A1, “COMPOSITION FOR TREATING OR PREVENTING BONE DISEASES, COMPRISING HALOFUGINONE AS ACTIVE INGREDIENT” (THE CATHOLIC UNIVERSITY OF KOREA INDUSTRY-ACADEMIC …, priority 2013, published 2016).

Experiments:
[1] = test system: mouse model with collagen-induced arthritis; test: Arthritis index score in mouse model with collagen-induced arthritis (CIA); type: in vivo
Protocol: (§1) For the construction of a mouse model with collagen-induced arthritis (hereinafter, referred to as “CIA”), a 6-week old male DBA/1J mouse was subjected to primary immunization by intradermal injection after mixing the bovine type II collagen (hereinafter, referred to as “CII”) and complete Freud's adjuvant (CFA) in an amount of 100 μL, respectively. After a week thereafter, halofuginone was injected intraperitoneally at 3 day intervals at a concentration of 100 μg/kg and 500 μg/kg, respectively (9 weeks).
To examine the therapeutic effect of treating halofuginone of the present invention on arthritis, the clinical score of the joint inflammation of the mouse prepared in Example <1-1> (the mouse with arthritis injected with halofuginone) was measured while observing the mouse. The group treated with a solution in which DMSO was diluted in saline was used as the control group.
The clinical score was evaluated using a clinical score system, in which the respective score for swelling and redness on toes or caudal regions was determined by observing daily the degree of the progress of the joint inflammation on the arthritis lesion of the mouse by the naked eye.

[2] = test system: anti-CII-specific IgG, IgG1, and IgG2a; test: Type II collagen-specific IgG, IgG1 and IgG2a in sera by ELISA; type: in vivo, mouse; details: CIA mice, sera 4 weeks after injection, FIG. 1D
Protocol: as §1
The concentrations of murine anti-CII-specific IgG, IgG1, and IgG2a were measured by ELISA method by collecting sera from a mouse with arthritis 4 weeks after injecting the mouse with halofuginone (Bethyl Lab Co., Montgomery, Tex., USA). The group treated with a solution in which DMSO was diluted in saline was used as the control group.
The method of measuring the anti-CII-specific IgG, IgG1, and IgG2a antibodies is as follows. The CII was diluted in 0.05M sodium carbonate coating buffer (pH 9.6) at a concentration of 4 μg/mL, coated onto a 96-well microtiter plate, and placed at 4° C. for 18 hours. After removing the coated solution, for the inhibition of non-specific binding, TBS (pH 8.0) containing 1% bovine serum albumin (BSA: Amre-sco, solon, Ohio, USA) was added in an amount of 200 μL thereto and reacted at room temperature for 1 hour. For the measurement of anti-CII-specific IgG, IgG1, and IgG2a antibodies, the specimen was diluted at a 1:1,000 ratio, and in particular, TBS (pH 8.0) containing 1% BSA and 0.05% Tween 20 (Amresco) was used as the diluted solution. Then, the sera sample diluted in advance was added to each well in an amount of 50 μL and reacted at room temperature for 1 hour. […] The absorbance of the resultant was measured at 450 nm using the ELISA reader and the result of antibody measurement was indicated by absorbance itself.

[3] = test system: Th17- and Treg cells in splenocytes; test: Th17 and Treg cells, pSTAT3 and pSTAT5 in splenocytes of CIA mice by immunostaining and confocal microscope; type: in vivo, mouse
Protocol: as §1
To examine the effect of halofuginone treatment in an animal model on Th17 and Treg factors, the measurement was performed using a confocal microscope after the immunostaining. Specifically, the spleens of the mice in the experimental group and control group in Examples were collected and embedded with an OCT compound, and the tissues rapidly cooled using liquid nitrogen were sliced into a thickness of 7 μm using a cryo microtome, and attached to slides. The sliced sections attached to the slides were fixed with acetone, and non-specific binding was blocked by reacting with 10% normal goat serum for 30 minutes. The first antibodies, i.e., FITC-labeled anti-Foxp3 Ab, PElabeled anti-IL-17 Ab APC-labeled anti-CD4 Ab, Allophycocyanin-labeled anti-CD25 Ab (Biolegend), biotinylated anti-CD4 Ab (BD Biosciences, San Jose, Calif., USA), were diluted in PBS (pH 7.5) at a 1:100 ratio and reacted at 4° C. overnight. On the next day, the resultant was washed with PBS and reacted with streptavidin cy-3 at room temperature for 2 hours. The stained tissues were analyzed using a confocal microscope (LSM 510 Meta. Zeiss, Gottingen, Germany), and the number of IL-17+ cells and Foxp3+ cells were scored under a microscopic observation, and the results are shown in graphs. Meanwhile, pSTAT3 and pSTAT5 were immunostained in the same manner as described above and the measurement was performed using a confocal microscope, and in particular, PE-conjugated anti-phospho-Stat3 (Y705 and S727; 1:50), and Alexa Fluor 488-conjugated anti-phospho-Stat5 (Y694; 1:100) (all from BD Biosciences) antibodies were used.

[4] = test system: bone marrow cells differentiating into osteoclasts; test: TRAP staining of bone marrow cells from arthritis animal model cultured with M-CSF and RANKL; type: in vivo, mouse; details: bone marrow cells from treated CIA mice, cultured with M-CSF and RANKL for 7 days, FIG. 4B
Protocol: as §1
Accordingly, the present inventors isolated bone marrow cells from the joint of the animal model with arthritis, cultured the cells under the stimulation of M-CSF and RANKL for 7 days, and subjected them to TRAP staining using the leukocyte acid phosphatase Kit (387-A, Sigma, St. Louis, Mo., USA) according to the manufacturer's manual.

[5] = test system: mononuclear cells of human peripheral blood; test: Differentiation of osteoclasts in mononuclear cells of human peripheral blood: TRAP staining and real-time PCR; type: cell-based; details: M-CSF, RANKL, 9 days
Protocol: The mononuclear cells of human peripheral blood were cultured for 9 days after stimulating with M-CSF, RANKL, and halofuginone. Then, the cells were stained by TRAP according to the manufacturer's manual, and the amount of mRNA of TRAP, NFATc1, calcitonin receptor (CTR), cathepsin K, MMP9, and RANK were confirmed by real-time PCR.

[6] = test system: osteoclasts from mononuclear cells of human peripheral blood; test: Bone resorption potential by osteoclasts in human cells; type: cell-based; details: FIG. 6D
Protocol: To examine the effect of halofuginone on the bone resorption potential by osteoclasts, murine bone marrow cells were cultured in Dentine slice, and the cultured cells were stimulated with M-CSF, RANKL, and halofuginone, and cultured for 21 additional days. Then, the cells were removed using 5% sodium hypochlorite solution, subjected to Hematoxylin staining, and the bone resorption lacunae formed by the bone resorption of osteoclasts were photographed.
The effect of halofuginone on the bone resorption potential by osteoclasts was observed using the mononuclear cells of human peripheral blood, in the same manner as described in Example <2-7>.

[7] = CD4+ cells of splenocytes of CIA mice, immunostaining
[8] = splenocytes of CIA mice injected with halofuginone, FIG. 2A
[9] = dose-dependent, FIGS. 6B and 6C

SMILES: O=C(C[C@H]1NCCC[C@@H]1O)Cn1cnc2cc(Br)c(Cl)cc2c1=O (racemic) [halofuginone]
- arthritis index score ([1]; CIA DBA/1J mice, 100 and 500 μg/kg intraperitoneally at 3 day intervals, vs DMSO in saline control, FIG. 1A): decrease in the arthritis index score in a dose-dependent manner
- arthritis lesion by the naked eye ([1]; CIA mice, 500 μg/kg): no arthritis lesion at all
- concentration of IgG1 within the sera [2]: significantly decreased
- concentration of IgG2a within the sera [2]: significantly decreased
- concentration of IgG within the sera [2]: significantly decreased
- expression of pSTAT3 [3, 7]: decreased
- expression of pSTAT5 [3, 7]: increased
- number of Th17 cells [3, 8]: decreased
- number of Treg cells [3, 8]: increased
- number of TRAP positive cells [4]: decreased
- differentiation of osteoclasts [5]: effectively inhibit
- mRNA expression of MMP9 [5, 9]: decreased
- mRNA expression of NFATc1 [5, 9]: decreased
- mRNA expression of RANK [5, 9]: decreased
- mRNA expression of TRAP [5, 9]: decreased
- mRNA expression of calcitonin receptor(CTR) [5, 9]: decreased
- mRNA expression of cathepsin K [5, 9]: decreased
- bone resorption potential [6]: significantly reduced
